pKd: −log10 of the molar value. Read-outs that look alike come from different tables or passages of the source.
Biological target: human TYK2 (JH2domain-pseudokinase) (Homo sapiens (Human), UniProt P29597)
Test: TYK2 JH2 Domain Binding Assay (KINOMEscan)
Details: read-out: JH2 Kd
[1] = Table 5, Tyk2 JH2 Domain Binding Assay

Chain of human TYK2 (JH2domain-pseudokinase) (P29597 556-888): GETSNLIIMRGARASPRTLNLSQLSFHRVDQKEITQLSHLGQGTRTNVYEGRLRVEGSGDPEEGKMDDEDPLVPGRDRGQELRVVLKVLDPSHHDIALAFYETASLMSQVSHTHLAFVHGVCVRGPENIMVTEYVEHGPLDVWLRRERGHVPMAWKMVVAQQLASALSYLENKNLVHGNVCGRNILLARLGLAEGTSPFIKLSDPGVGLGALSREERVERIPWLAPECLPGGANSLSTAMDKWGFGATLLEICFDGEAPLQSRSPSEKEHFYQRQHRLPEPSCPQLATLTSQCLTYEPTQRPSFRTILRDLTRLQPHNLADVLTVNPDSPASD

Structure (SMILES) | pKd (Table 4, JH2 binding assay) | pKd [1]
COc1cc(C(=O)N2CCOCC2)ccc1Nc1cc(NC(=O)C2CC2)nc2[nH]n(C)c(=O)c12 [Compound I-71, N-(4-((2-methoxy-4-(morpholine-4-carbonyl)phenyl)amino)-2-methyl-3-oxo-2,3-dihydro-1H-pyrazolo[3,4-b]pyridin-6-yl)cyclopropanecarboxamide] | 9.00 to 9.30 | –
COc1c(Nc2cc(Nc3cccc(C#N)n3)nc3[nH]n(C)c(=O)c23)cccc1-c1ccn(C)n1 [Compound I-122, 6-((4-((2-methoxy-3-(1-methyl-1H-pyrazol-3-yl)phenyl)amino)-2-methyl-3-oxo-2,3-dihydro-1H-pyrazolo[3,4-b]pyridin-6-yl)amino)picolinonitrile] | 9.30 to 10.00 | –
CN(c1ccccc1Nc1cc(Nc2cc3c(cn2)OCC3)nc2[nH]n(C)c(=O)c12)S(C)(=O)=O [Compound I-226, N-(2-((6-((2,3-dihydrofuro[2,3-c]pyridin-5-yl)amino)-2-methyl-3-oxo-2,3-dihydro-1H-pyrazolo[3,4-b]pyridin-4-yl)amino)phenyl)-N-methylmethanesulfonamide] | 9.30 to 10.00 | –
Cn1[nH]c2nc(NC(=O)[C@H]3CC3(F)F)cc(Nc3ccc(C4CC4)cc3S(C)(=O)=O)c2c1=O [Compound I-238, (R)-N-(4-((4-cyclopropyl-2-(methylsulfonyl)phenyl)amino)-2-methyl-3-oxo-2,3-dihydro-1H-pyrazolo[3,4-b]pyridin-6-yl)-2,2-difluorocyclopropane-1-carboxamide] | 9.30 to 10.00 | –
COc1cc(CO)ccc1Nc1cc(NC(=O)C2CC2)nc2[nH]n(C)c(=O)c12 [Compound I-44] | 8.00 to 9.00 | –
COc1c(Cl)cccc1Nc1cc(Nc2cnc(C(C)C)c(C#N)n2)nc2[nH]n(C)c(=O)c12 [Compound I-158, 6-((4-((3-chloro-2-methoxyphenyl)amino)-2-methyl-3-oxo-2,3-dihydro-1H-pyrazolo[3,4-b]pyridin-6-yl)amino)-3-isopropylpyrazine-2-carbonitrile] | < 8.00 | –
COc1c(Nc2cc(Nc3ccc(N4CCCCC4)cn3)nc3[nH]n(C)c(=O)c23)cccc1-c1ncn(C)n1 [Compound I-24, 4-((2-methoxy-3-(1-methyl-1H-1,2,4-triazol-3-yl)phenyl)amino)-2-methyl-6-((5-(piperidin-1-yl)pyridin-2-yl)amino)-1,2-dihydro-3H-pyrazolo[3,4-b]pyridin-3-one] | 9.30 to 10.00 | –
CCc1ccc(Nc2cc(NC(=O)C3CC3)nc3[nH]n(C)c(=O)c23)c(N(C)S(C)(=O)=O)c1 [Compound I-217, N-(4-((4-ethyl-2-(N-methylmethylsulfonamido)phenyl)amino)-2-methyl-3-oxo-2,3-dihydro-1H-pyrazolo[3,4-b]pyridin-6-yl)cyclopropanecarboxamide] | > 10.00 | –
COc1c(Cl)cccc1Nc1cc(Nc2cnc(C3CC3)c(C#N)n2)nc2[nH]n(C)c(=O)c12 [Compound I-146, 6-((4-((3-chloro-2-methoxyphenyl)amino)-2-methyl-3-oxo-2,3-dihydro-1H-pyrazolo[3,4-b]pyridin-6-yl)amino)-3-cyclopropylpyrazine-2-carbonitrile] | < 8.00 | –
COc1c(Cl)cccc1Nc1cc(Nc2ccc(N3CCC3)c(C#N)n2)nc2[nH]n(C)c(=O)c12 [Compound I-144, 3-(azetidin-1-yl)-6-((4-((3-chloro-2-methoxyphenyl)amino)-2-methyl-3-oxo-2,3-dihydro-1H-pyrazolo[3,4-b]pyridin-6-yl)amino)picolinonitrile] | 9.30 to 10.00 | –
Cc1ccc(Nc2cc(Nc3ccccc3S(C)(=O)=O)c3c(=O)n(C)[nH]c3n2)nc1 [Compound I-111, 2-methyl-6-((5-methylpyridin-2-yl)amino)-4-((2-(methylsulfonyl)phenyl)amino)-1,2-dihydro-3H-pyrazolo[3,4-b]pyridin-3-one] | 9.30 to 10.00 | –
COCc1ccc(Nc2cc(Nc3cccc(C#N)n3)nc3[nH]n(C)c(=O)c23)c(OC)c1 [Compound I-68, 6-((4-((2-methoxy-4-(methoxymethyl)phenyl)amino)-2-methyl-3-oxo-2,3-dihydro-1H-pyrazolo[3,4-b]pyridin-6-yl)amino)picolinonitrile] | 9.30 to 10.00 | –
COc1c(C#N)cccc1Nc1cc(Nc2ccc(C#N)cn2)nc2[nH]n(C)c(=O)c12 [Compound I-41] | < 8.00 | –
COc1c(Nc2cc(Nc3ccc(C)nn3)nc3[nH]n(C)c(=O)c23)cccc1-c1nnn(C)n1 [Compound I-10, 4-((2-methoxy-3-(2-methyl-2H-tetrazol-5-yl)phenyl)amino)-2-methyl-6-((6-methylpyridazin-3-yl)amino)-1,2-dihydro-3H-pyrazolo[3,4-b]pyridin-3-one] | > 10.00 | –
Cn1[nH]c2nc(Nc3ccc(C#N)cn3)cc(Nc3ccc(C4CC4)cc3S(C)(=O)=O)c2c1=O [Compound I-213, 6-((4-((4-cyclopropyl-2-(methylsulfonyl)phenyl)amino)-2-methyl-3-oxo-2,3-dihydro-1H-pyrazolo[3,4-b]pyridin-6-yl)amino)nicotinonitrile] | 9.30 to 10.00 | –
COc1c(Nc2cc(Nc3cc(C)nc(C)n3)nc3[nH]n(C)c(=O)c23)cccc1-c1nnn(C)n1 [Compound I-9, 6-((2,6-dimethylpyrimidin-4-yl)amino)-4-((2-methoxy-3-(2-methyl-2H-tetrazol-5-yl)phenyl)amino)-2-methyl-1,2-dihydro-3H-pyrazolo[3,4-b]pyridin-3-one] | > 10.00 | –

Structure (SMILES) | pKd (Table 4, JH2 binding assay) | pKd [1]
COCc1ccnc(Nc2cc(Nc3cccc(C(N)=O)c3OC)c3c(=O)n(C)[nH]c3n2)c1 [Compound I-126, 2-methoxy-3-((6-((4-(methoxymethyl)pyridin-2-yl)amino)-2-methyl-3-oxo-2,3-dihydro-1H-pyrazolo[3,4-b]pyridin-4-yl)amino)benzamide] | < 8.00 | –
COc1c(Nc2cc(Nc3cccc(C#N)n3)ncc2-c2ncc(Cl)s2)cccc1-c1nnn(C)n1 [VIII-15, 6-((5-(5-chlorothiazol-2-yl)-4-((2-methoxy-3-(2-methyl-2H-tetrazol-5-yl)phenyl)amino)pyridin-2-yl)amino)picolinonitrile] | – | 8.00 to 9.00
CCc1ccc(Nc2cc(NC(=O)C3CC3)nc3[nH]n(C)c(=O)c23)c(S(C)(=O)=O)c1 [Compound I-152, N-(4-((4-ethyl-2-(methylsulfonyl)phenyl)amino)-2-methyl-3-oxo-2,3-dihydro-1H-pyrazolo[3,4-b]pyridin-6-yl)cyclopropanecarboxamide] | 9.00 to 9.30 | –
Cn1ccc(Nc2cc(Nc3ccccc3S(C)(=O)=O)c3c(=O)n(C)[nH]c3n2)n1 [Compound I-137, 2-methyl-6-((1-methyl-1H-pyrazol-3-yl)amino)-4-((2-(methylsulfonyl)phenyl)amino)-1,2-dihydro-3H-pyrazolo[3,4-b]pyridin-3-one] | 9.00 to 9.30 | –
COc1c(Nc2cc(Nc3ccc(C)nn3)ncc2-c2nnc(CO)o2)cccc1-c1ncn(C)n1 [VIII-12, (5-(4-((2-methoxy-3-(1-methyl-1H-1,2,4-triazol-3-yl)phenyl)amino)-6-((6-methylpyridazin-3-yl)amino)pyridin-3-yl)-1,3,4-oxadiazol-2-yl)methanol] | – | 9.00 to 10.00
COc1c(Nc2cc(NC(=O)C3CC3)ncc2-c2noc(CO)n2)cccc1-c1ncn(C)n1 [VIII-9, N-(5-(5-(hydroxymethyl)-1,2,4-oxadiazol-3-yl)-4-((2-methoxy-3-(1-methyl-1H-1,2,4-triazol-3-yl)phenyl)amino)pyridin-2-yl)cyclopropanecarboxamide] | – | < 7.00
COc1c(Nc2cc(Nc3cc(C)ccn3)nc3[nH]n(C)c(=O)c23)cccc1-c1nccs1 [Compound I-43] | < 8.00 | –
COc1c(Cl)cccc1Nc1cc(Nc2cc(C)nc(C)n2)nc2[nH]n(C)c(=O)c12 [Compound I-96, 4-((3-chloro-2-methoxyphenyl)amino)-6-((2,6-dimethylpyrimidin-4-yl)amino)-2-methyl-1,2-dihydro-3H-pyrazolo[3,4-b]pyridin-3-on] | 9.30 to 10.00 | –
COCc1ccc(Nc2cc(Nc3ccc(OC)c(C(F)(F)F)n3)nc3[nH]n(C)c(=O)c23)c(OC)c1 [Compound I-104, 4-((2-methoxy-4-(methoxymethyl)phenyl)amino)-6-((5-methoxy-6-(trifluoromethyl)pyridin-2-yl)amino)-2-methyl-1,2-dihydro-3H-pyrazolo[3,4-b]pyridin-3-one] | < 8.00 | –
COc1c(F)cccc1Nc1cc(Nc2cc(C)nc(C)n2)nc2[nH]n(C)c(=O)c12 [Compound I-74, 6-((2,6-dimethylpyrimidin-4-yl)amino)-4-((3-fluoro-2-methoxyphenyl)amino)-2-methyl-1,2-dihydro-3H-pyrazolo[3,4-b]pyridin-3-one] | 9.30 to 10.00 | –
COc1c(Nc2cc(Nc3cccc(C#N)n3)nc3[nH]n(C)c(=O)c23)cccc1-c1nnn(C)n1 [Compound I-28, 6-((4-((2-methoxy-3-(2-methyl-2H-tetrazol-5-yl)phenyl)amino)-2-methyl-3-oxo-2,3-dihydro-1H-pyrazolo[3,4-b]pyridin-6-yl)amino)picolinonitrile] | 8.00 to 9.00 | –
COc1c(Nc2cc(NC(=O)C3CC3)ncc2-n2cc(CO)cn2)cccc1-c1ncn(C)n1 [VIII-10, N-(5-(4-(hydroxymethyl)-1H-pyrazol-1-yl)-4-((2-methoxy-3-(1-methyl-1H-1,2,4-triazol-3-yl)phenyl)amino)pyridin-2-yl)cyclopropanecarboxamide] | – | < 7.00
COCc1ccnc(Nc2cc(Nc3cccc(Cl)c3OC)c3c(=O)n(C)[nH]c3n2)c1 [Compound I-97, 4-((3-chloro-2-methoxyphenyl)amino)-6-((4-(methoxymethyl)pyridin-2-yl)amino)-2-methyl-1,2-dihydro-3H-pyrazolo[3,4-b]pyridin-3-one] | 9.00 to 9.30 | –
COc1c(F)cccc1Nc1cc(Nc2cccc(N3CC(OC)C3)n2)nc2[nH]n(C)c(=O)c12 [Compound I-94, 4-((3-fluoro-2-methoxyphenyl)amino)-6-((6-(3-methoxyazetidin-1-yl)pyridin-2-yl)amino)-2-methyl-1,2-dihydro-3H-pyrazolo[3,4-b]pyridin-3-one] | 8.00 to 9.00 | –
Cc1ccnc(Nc2cc(Nc3ccccc3S(C)(=O)=O)c3c(=O)n(C)[nH]c3n2)c1 [Compound I-138, 2-methyl-6-((4-methylpyridin-2-yl)amino)-4-((2-(methylsulfonyl)phenyl)amino)-1,2-dihydro-3H-pyrazolo[3,4-b]pyridin-3-one] | 9.00 to 9.30 | –

— patent US10323036B2 (Nimbus Lakshmi, Inc., priority 2016, dated 2019)
